Experimental data published in patent US20180117005A1, “COMPOSITIONS FOR THE TREATMENT OF CANCER” (THE GENERAL HOSPITAL CORPORATION, priority 2015, published 2018).

Test system: tumor that expresses high levels of CXCL12
Assay: Tumor growth in mice with a subcutaneous CXCL12-expressing tumor, AMD3100 followed by cisplatin
Type: in vivo
Experimental: Mice are injected with tumor cells (subcutaneous injection) from a tumor that expresses high levels of CXCL12 and a tumor allowed to develop. Once the tumor has formed, the mice are injected (subcutaneous in the same flank as the tumor) with AMD3100 or vehicle, once a day for 5 days.
One to three days after the final dose of AMD3100, mice are injected via intraperitoneal injection with a therapeutically effective amount of cisplatin 18 hours prior to assay of tumor growth.

| Compound | Tumor growth (cisplatin intraperitoneal 18 hours prior to assay, growth resumes soon after treatment is discontinued in mice not administered AMD3100) | Delay in tumor growth, co-treatment versus cisplatin alone (AMD3100 subcutaneous once a day for 5 days, then cisplatin intraperitoneal one to three days after the final dose) |
| --- | --- | --- |
| N.N.[Cl][Pt][Cl] [cisplatin] | delayed |  |
| c1cc(CN2CCCNCCNCCCNCC2)ccc1CN1CCCNCCNCCCNCC1 [AMD3100] |  | synergistic effect |
